Test results reported in patent US20260159481A1, “INDOLE DERIVATIVE WITH SUBSTITUENT AND PHARMACEUTICAL USE” (MITOIMMUNE THERAPEUTICS INC., priority 2023, published 2026).

Columns and labels:
Type in all cases: cell-based
[1] = system: renal proximal tubular epithelial cells (HK2); assay: Protective effect against cell death due to RSL3 (LDH release), HK2; details: RSL3 0.3 μM, 24 hours
Protocol: (§1) To confirm cell death protection effects on cardiac cells, adrenal medullary cells, renal fibroblasts, retinal epithelial cells, lung epithelial cells, renal proximal tubular epithelial cells, hippocampal neurons and fibroblasts, each type of cells were seeded at 4×10^3 to 1.2×10^4 cells/well in a 96-well plate and cultured for 18 to 24 hours. The example compounds were diluted to have the final concentration of 0.001, 0.003, 0.01, 0.3, 1, 3, and 10 μM, respectively, and then added to different wells and cultured for 15 to 20 minutes. […] To confirm the cell death protection effect of the example compounds, the degree of extracellular secretion of lactate dehydrogenase (LDH) was measured using a cytotoxicity LDH assay kit [Dojindo; CK12]. Briefly, at the end of 24-hour treatment of each type of cells with RSL3, 70 μL of the supernatant was taken from the 96-well plate where the cells were cultured and transferred to a new 96-well plate. The assay buffer included in the kit was added at 70 μL/well (equal to that of the sample) and the plate was covered with foil to block light and allowed to react for 15 to 20 minutes at room temperature. While observing a color change of the sample, 35 µL/well of a stop solution was added, an absorbance at 490 nm was measured using an iD3 spectrophotometer, and an EC50 value was calculated.

[2] = system: renal fibroblasts (NRK-49F); assay: Protective effect against cell death due to RSL3 (LDH release), NRK-49F; details: RSL3 3 μM, 24 hours
Protocol: as §1

[3] = system: MLE-12 cells; assay: Inhibitory effect on cytosolic ROS (CM-H2DCFDA) under RSL3; details: 1 μM RSL3, 2 hours, compound 0.01, 0.1, 1 μM, FIG. 3
Protocol: To confirm the protective effect against cyto-ROS in lung epithelial cells, MLE-12 cells were seeded at 2×10^5 cells/well in a 12-well plate, and cultured for 18 to 24 hours. Example Compound 29 and Fer-1 were diluted to have the final concentration of 0.01, 0.1, and 1 μM and added to each well, and the cells were cultured for 10 minutes. Afterward, RSL3 was treated to have the final concentration of 1 M, and the cells were cultured for 2 hours. To confirm the inhibitory effect on cyto-ROS, the general oxidative stress indicator CM-H2DCFDA (Invitrogen™; C6827) was used. According to the manufacturer's protocol, CM-H2DCFDA was diluted in the culture broth to have the final concentration of 5 μM, and fluorescence staining was performed after a 30-minute reaction. The MLE-12 cells that were fluorescence-stained with CM-H2DCFDA were detached from the 12-well plate using 0.25% trypsin-EDTA and transferred to a microtube. Fluorescence (Ex/Em=492˜495 nm/517-527 nm) was measured using BD FACSLyric™, and the relative change compared to the control (RSL3-untreated group) was calculated.

[4] = system: MLE-12 cells; assay: Inhibitory effect on intracellular lipid ROS (BODIPY 581/591 C11) under RSL3; details: 1 μM RSL3, 2 hours, compound 0.01, 0.1, 1 μM, FIG. 1
Protocol: To confirm the protective effect against intracellular lipid ROS in lung epithelial cells, MLE-12 cells were seeded at 2×10^5 cells/well in a 12-well plate and cultured for 18 to 24 hours. Example Compound 29 and Fer-1 were diluted to have the final concentration of 0.01, 0.1, and 1 μM and added to each well, and the cells were cultured for 10 minutes. Afterward, RSL3 was treated to have the final concentration of 1 μM, and the cells were cultured for 2 hours. To confirm the intracellular inhibitory effect on lipid ROS, the lipid peroxidation sensor BODIPY™ 581/591 C11 (Invitrogen™; D3861) was used. According to the manufacturer's protocol, the BODIPY™ 581/591 C11 was diluted in the culture broth to have the final concentration of […] and treated, and fluorescence staining was performed after a 30-minute reaction. The MILE-12 cells that were fluorescence-stained with BODIPY™ 581/591 C11 were detached from the 12-well plate using 0.25% trypsin-EDTA and transferred to a microtube. Fluorescence (Ex/Em=500-650 nm/510-665 nm) was measured using BD FACSLyric™, and the relative change compared to the control was calculated.

[5] = system: lung epithelial cells (MLE-12); assay: Protective effect against cell death due to RSL3 (LDH release), MLE-12; details: 24 hours
Protocol: as §1

[6] = system: cardiac cells (H9C2); assay: Protective effect against t-BHP-induced cell death in cardiac cells (LDH release); details: Rattus norvegicus, t-BHP 400 PM, 2 hours, read-out: EC50, protective effect against cell death due to t-BHP induction
How it was run: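 H9C2 cells were pretreated 15–20 min with compound at final 0.001–30 PM (so in the source), then exposed to t-BHP at final 400 PM for 2 h. LDH released into supernatant was measured colorimetrically at 490 nm after 15 min room-temperature reaction, and EC50 derived.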

Row | Structure (SMILES) | EC50 [1] | EC50 [2] | cyto-ROS increased by RSL3 treatment [3] | intracellular lipid ROS increased by RSL3 treatment [4] | EC50 ([5]; RSL3 1 μM) | EC50 ([1]; Epithelial cell) | EC50 ([2]; Rattus norvegicus) | EC50 [6] | EC50 ([5]; MLE12, RSL3 1 μM)
1 | CCOC(=O)c1ccc(NC2CCCCC2)c(N)c1 [Fer-1, ferrostatin-1, reference compound] | ≤ 100 nM | ≤ 100 nM | significantly reduced lipid ROS levels at 0.01, 0.1 and 1 μM | significantly decreased at 0.01, 0.1, and 1 μM | 100 to 1000 nM |  |  |  | 
2 | OCCOCCOCc1cc(NC2CCOCC2)c2[nH]c(-c3ccccc3)cc2c1 [Example 29, 2-(2-((2-phenyl-7-((tetrahydro-2H-pyran-4-yl)amino)-1H-indol-5-yl)methoxy)ethoxy)ethan-1-ol] |  |  | significantly reduced lipid ROS levels at 0.1 and 1 μM | significantly decreased at 0.01, 0.1, and 1 μM |  | ≤ 100 nM | ≤ 100 nM | ≤ 300 nM | ≤ 100 nM
